Where “and” joins values, the source holds several entries; their conditions need not be identical. Identical values can stand only once.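 96-well plates; 48 h exposure; 5 concentrations. Endpoints by linear interpolation between flanking doses. Not reached: highest tested concentration assigned. At the GI50, growth is halved. Definition used: TGI = concentration required for complete inhibition of growth.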
What was measured:
Assay in all cases: inhibition of tumour cell growth, NCI panel, 48 h
BT-549 breast = tested on: BT-549 breast
DU-145 prostate = tested on: DU-145 prostate
HCC-2998 colon = tested on: HCC-2998 colon
HOP-62 NSCLC = tested on: HOP-62 NSCLC
HS 578T breast = tested on: HS 578T breast
MCF7 breast = tested on: MCF7 breast
SK-MEL-2 melanoma = tested on: SK-MEL-2 melanoma
SK-MEL-28 melanoma = tested on: SK-MEL-28 melanoma
SK-MEL-5 melanoma = tested on: SK-MEL-5 melanoma
SNB-19 CNS = tested on: SNB-19 CNS

| SMILES | GI50 (BT-549 breast) | TGI (BT-549 breast) | GI50 (DU-145 prostate) | TGI (DU-145 prostate) | GI50 (HCC-2998 colon) | TGI (HCC-2998 colon) | GI50 (HOP-62 NSCLC) | TGI (HOP-62 NSCLC) | GI50 (HS 578T breast) | TGI (HS 578T breast) | GI50 (MCF7 breast) | TGI (MCF7 breast) | GI50 (SK-MEL-2 melanoma) | TGI (SK-MEL-2 melanoma) | GI50 (SK-MEL-28 melanoma) | TGI (SK-MEL-28 melanoma) | GI50 (SK-MEL-5 melanoma) | TGI (SK-MEL-5 melanoma) | GI50 (SNB-19 CNS) | TGI (SNB-19 CNS) |
| --- | --- | --- | --- | --- | --- | --- | --- | --- | --- | --- | --- | --- | --- | --- | --- | --- | --- | --- | --- | --- |
| CN1CCN(Cc2ccc(NC(=O)c3cccc(C#Cc4c(N)ncc5ccc(F)cc45)c3)cc2C(F)(F)F)CC1 | 2.11 µM | 6.66 µM | 0.838 µM | 1.59 µM | 0.969 µM | 1.84 µM | 0.795 µM | 1.65 µM | 0.627 µM | 1.97 µM | 0.768 µM | 1.53 µM | 0.923 µM | 2.09 µM | 0.79 µM | 1.53 µM | 0.896 µM | 1.68 µM | 0.916 µM | 1.65 µM |
| COc1ccc(C[C@H]2NC[C@H](O)[C@H]2OC(C)=O)cc1 | – | 1.91 µM | – | 0.27 µM | – | 0.0862 µM | – | 0.193 µM | – | 0.0604 µM | – | 0.119 µM | – | 0.398 µM | – | 0.351 µM | 0.0176 µM | 0.0585 µM | – | 0.289 µM |
| N#Cc1ccc(NC(=O)Nc2nc3ccc(OC(F)(F)F)cc3s2)cc1 | 2.78 µM | 9.36 µM | 2.7 µM | 13.6 µM | 1.28 µM | 6.04 µM | 2.52 µM | 8.12 µM | 1.78 µM | 7.65 µM | 1 µM | 11.6 µM | 1.78 µM | 4.25 µM | 2.31 µM | 12.3 µM | 1.15 µM | 2.54 µM | 1.5 µM | 13.9 µM |
| CC(C)Cc1ccc(C(C)/C=C2\CCC(CN3CCCCC3)C2=O)cc1 (stereo unspecified) | – | 34.4 µM | – | 31 µM | – | 17.7 µM | – | 17.6 µM | – | 45.6 µM | – | 4.08 µM | – | 27 µM | – | 11 µM | – | 27 µM | – | 19.6 µM |
| CCCCCCC/C=C1\CCC(CN(C)C)C1=O (stereo unspecified) | – | 28 µM | – | 27.8 µM | – | 32.1 µM | – | 32.3 µM | – | > 100 µM | – | 16.4 µM | – | 29.8 µM | – | 31 µM | – | 34 µM | – | 33.8 µM |
| Cc1cc(C)c(O)c(CNCCCNCc2cc(C)cc(C)c2O)c1 | 10.9 µM | 24.5 µM | 5.19 µM | 17.7 µM | 1.45 µM | 2.82 µM | 6.68 µM | 21.8 µM | 2.05 µM | 5.03 µM | 1.67 µM | 3.36 µM | 2.15 µM | 4.5 µM | 1.65 µM | 3.19 µM | 1.57 µM | 2.93 µM | 3.88 µM | 15.1 µM |
| CCCCCCC(O)C(O)CCC(O)C1CCC(CCCCC(O)CC2=CC(C)OC2=O)O1 (stereo unspecified) | – | 66.8 µM | – | – | – | 34.5 µM | 12.4 µM | 26 µM | – | 6.98 µM | 10.1 µM | 28 µM | 17.4 µM | 36 µM | 26 µM | 62.5 µM | – | 7.07 µM and 13.4 µM | 14.2 µM | 38.8 µM |
| N#CC(C(=O)O)C(c1c(Cl)cccc1Cl)C(C#N)C(=O)O (stereo unspecified) | – | > 100 µM | – | > 100 µM | – | – | – | > 100 µM | – | > 100 µM | – | > 100 µM | – | > 100 µM | – | > 100 µM | – | > 100 µM | – | > 100 µM |
| COC(=O)[C@H](Cc1cn(C)cn1)NC(=O)[C@@H](NC(=O)Nc1cc(C(F)(F)F)cc(C(F)(F)F)c1)C(C)(C)C | > 10 µM | > 10 µM | > 10 µM | > 10 µM | > 10 µM | > 10 µM | > 10 µM | > 10 µM | – | – | > 10 µM | > 10 µM | > 10 µM | > 10 µM | > 10 µM | > 10 µM | > 10 µM | > 10 µM | > 10 µM | > 10 µM |
| CSC1SCC2C(=O)N(C)C(C(C)C)C(=O)OCC(NC(=O)c3cnc4ccccc4n3)C(=O)NC(C)C(=O)N(C)C1C(=O)N(C)C(C(C)C)C(=O)OCC(NC(=O)c1cnc3ccccc3n1)C(=O)NC(C)C(=O)N2C (stereo unspecified) | < 0.001 µM | 0.0158 µM | < 0.001 µM | – | < 0.001 µM | – | < 0.001 µM | – | < 0.001 µM | 0.00282 µM and 0.00359 µM | < 0.001 µM | – | – | 0.00126 µM | < 0.001 µM | – | – | – | < 0.001 µM | – |
| C#CCN(Cc1nc2cc(C(F)(F)F)ccc2nc1-c1ccccc1)c1ccc(F)cc1 | 48 µM | > 100 µM | 39.4 µM | > 100 µM | – | – | 34.7 µM | > 100 µM | 34.7 µM | > 100 µM | 23.2 µM | > 100 µM | – | – | 44.2 µM | > 100 µM | 16.8 µM | 33.3 µM | 34.9 µM | > 100 µM |
| CN(C)C1C(=O)C(C(N)=O)=C(O)C2(O)C(=O)C3=C(O)c4c(O)cccc4C(C)(O)C3CC12 (stereo unspecified) | – | > 100 µM | – | > 100 µM | > 100 µM and 42.7 µM | > 100 µM | 37.5 µM and > 100 µM | > 100 µM | – | > 100 µM | – | > 100 µM | 73 µM and 28 µM | > 100 µM and 91.8 µM | – | > 100 µM | 22.4 µM and 56.5 µM | 39.9 µM and > 100 µM | – | – |
| CCOC(=O)C(=O)C(/C(=N/N(C)C)C(=O)Nc1ccc(C)cc1C)c1nc2ccccc2[nH]c1=O (stereo unspecified) | – | > 100 µM | – | – | – | > 100 µM | – | > 100 µM | – | > 100 µM | – | > 100 µM | – | > 100 µM | – | > 100 µM | – | > 100 µM | – | > 100 µM |
| COc1cc(=O)oc(/C=C/C=C/C=C/C(C)=C\C2(C)OC(C)C(C)(O)C2O)c1C (stereo unspecified) | – | > 100 µM | – | > 100 µM | – | – | – | > 100 µM | – | > 100 µM | – | > 100 µM | – | > 100 µM | – | > 100 µM | – | > 100 µM | – | > 100 µM |
| O=C(Nc1ccc(N2CCNCC2)cn1)c1[nH]ncc1Nc1ncnc2sccc12 | 1.83 µM | 4.13 µM | 3.57 µM | 12.2 µM | 12.7 µM | 32.1 µM | 2.99 µM | 14.7 µM | 2.86 µM | 14.2 µM | 1.71 µM | 4.17 µM | 7.72 µM | 25.9 µM | 1.95 µM | 3.83 µM | 1.71 µM | 3.26 µM | – | – |
| COc1cc2c(cc1OC)-c1ncc3cc(OC)c(OC)c(OC)c3c1C2 | 2.94 µM | 7.56 µM | 21.7 µM | > 100 µM | 26 µM | 95.8 µM | 34.8 µM | 86.7 µM | 4.11 µM | 27.2 µM | – | – | 21.7 µM | 73.9 µM | 46.7 µM | > 100 µM | 1.68 µM | 3.05 µM | 79.9 µM | > 100 µM |
